Data as given in ChEMBL document CHEMBL2380198, “SAR and evaluation of novel 5H-benzo[c][1,8]naphthyridin-6-one analogs as Aurora kinase inhibitors” (Bioorg Med Chem Lett, 2013).
The source made the active and inactive calls. The calls are words filed in the database; no cut-off is given here.

Key:
Aurora kinase B [1] = biological target: T1, Aurora kinase B (Homo sapiens, UniProt Q96GD4); test: Inhibition of aurora-B (unknown origin)
Aurora kinase A = biological target: T2, Aurora kinase A (Homo sapiens, UniProt O14965); test: Inhibition of aurora-A (unknown origin)
T2 sequence (O14965 whole entry): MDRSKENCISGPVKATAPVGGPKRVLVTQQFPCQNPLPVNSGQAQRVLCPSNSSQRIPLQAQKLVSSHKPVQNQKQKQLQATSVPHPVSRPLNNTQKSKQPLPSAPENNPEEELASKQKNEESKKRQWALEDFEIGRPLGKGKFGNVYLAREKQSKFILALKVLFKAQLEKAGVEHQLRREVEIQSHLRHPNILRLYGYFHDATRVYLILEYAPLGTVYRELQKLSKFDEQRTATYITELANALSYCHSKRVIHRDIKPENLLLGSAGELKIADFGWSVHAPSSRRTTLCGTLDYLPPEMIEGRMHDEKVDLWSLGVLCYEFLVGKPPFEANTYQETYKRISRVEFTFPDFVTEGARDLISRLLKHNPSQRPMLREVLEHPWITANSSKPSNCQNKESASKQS

[2] = biological target: Proto-oncogene tyrosine-protein kinase receptor Ret (Homo sapiens, UniProt P07949); test: Inhibition of Ret (unknown origin)
Proto-oncogene tyrosine-protein kinase receptor Ret, sequence (P07949 whole entry): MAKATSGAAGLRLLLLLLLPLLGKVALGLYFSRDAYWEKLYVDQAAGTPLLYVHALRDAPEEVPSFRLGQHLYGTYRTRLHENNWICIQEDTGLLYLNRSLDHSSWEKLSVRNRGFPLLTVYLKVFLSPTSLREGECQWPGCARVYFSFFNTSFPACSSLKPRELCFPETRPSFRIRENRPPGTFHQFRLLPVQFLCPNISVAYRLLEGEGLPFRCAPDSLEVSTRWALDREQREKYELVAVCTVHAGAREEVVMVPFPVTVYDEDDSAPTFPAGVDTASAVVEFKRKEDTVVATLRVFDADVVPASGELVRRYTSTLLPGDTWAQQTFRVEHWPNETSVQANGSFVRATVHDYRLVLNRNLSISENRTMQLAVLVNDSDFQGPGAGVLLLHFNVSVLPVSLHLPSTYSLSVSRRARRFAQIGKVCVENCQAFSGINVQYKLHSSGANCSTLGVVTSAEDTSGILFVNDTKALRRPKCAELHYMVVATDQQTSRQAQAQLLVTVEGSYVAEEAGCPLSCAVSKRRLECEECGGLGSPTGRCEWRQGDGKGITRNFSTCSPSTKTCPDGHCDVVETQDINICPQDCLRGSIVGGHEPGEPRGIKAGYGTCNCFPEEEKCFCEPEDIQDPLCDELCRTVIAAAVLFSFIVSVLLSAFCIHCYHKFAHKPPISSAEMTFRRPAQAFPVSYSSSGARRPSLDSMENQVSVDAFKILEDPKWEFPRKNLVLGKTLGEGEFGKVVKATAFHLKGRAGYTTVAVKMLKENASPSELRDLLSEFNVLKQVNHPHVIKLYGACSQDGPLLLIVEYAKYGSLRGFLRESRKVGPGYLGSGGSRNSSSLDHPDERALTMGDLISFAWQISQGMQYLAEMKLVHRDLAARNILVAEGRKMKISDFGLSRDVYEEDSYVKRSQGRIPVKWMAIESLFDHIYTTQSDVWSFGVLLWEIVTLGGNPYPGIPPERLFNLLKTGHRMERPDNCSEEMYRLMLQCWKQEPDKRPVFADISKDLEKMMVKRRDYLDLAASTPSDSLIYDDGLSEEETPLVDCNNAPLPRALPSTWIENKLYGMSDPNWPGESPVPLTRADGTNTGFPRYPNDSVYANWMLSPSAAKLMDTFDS

[3] = biological target: Tyrosine-protein kinase HCK (Homo sapiens, UniProt P08631); test: Inhibition of Hck (unknown origin)
LIM domain kinase 1 = LIM domain kinase 1 (Homo sapiens, UniProt P53667); test: Inhibition of LIMK1 (unknown origin)
LIM domain kinase 1, sequence (P53667 whole entry, the tested form may be a part): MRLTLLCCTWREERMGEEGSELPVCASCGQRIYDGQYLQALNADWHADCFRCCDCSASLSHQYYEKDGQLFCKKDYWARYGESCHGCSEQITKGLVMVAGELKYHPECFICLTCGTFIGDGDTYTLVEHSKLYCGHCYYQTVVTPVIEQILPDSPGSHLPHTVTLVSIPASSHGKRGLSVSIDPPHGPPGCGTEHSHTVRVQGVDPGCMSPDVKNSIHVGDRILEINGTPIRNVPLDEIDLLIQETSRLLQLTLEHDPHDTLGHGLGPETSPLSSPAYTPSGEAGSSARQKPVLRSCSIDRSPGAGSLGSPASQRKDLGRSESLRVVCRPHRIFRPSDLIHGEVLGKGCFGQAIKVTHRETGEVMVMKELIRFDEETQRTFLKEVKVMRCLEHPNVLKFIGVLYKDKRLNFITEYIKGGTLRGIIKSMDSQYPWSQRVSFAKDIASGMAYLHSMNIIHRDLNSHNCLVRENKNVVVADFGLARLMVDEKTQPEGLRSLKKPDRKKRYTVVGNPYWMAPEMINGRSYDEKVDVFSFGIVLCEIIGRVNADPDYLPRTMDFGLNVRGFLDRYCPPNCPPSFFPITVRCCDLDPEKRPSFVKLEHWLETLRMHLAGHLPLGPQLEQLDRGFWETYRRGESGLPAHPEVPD

[4] = Solubility of the compound; format: physicochemical
[5] = biological target: Serine/threonine-protein kinase Chk2 (Homo sapiens, UniProt O96017); test: Inhibition of CHK2 (unknown origin)
Serine/threonine-protein kinase Chk2, sequence (O96017 whole entry): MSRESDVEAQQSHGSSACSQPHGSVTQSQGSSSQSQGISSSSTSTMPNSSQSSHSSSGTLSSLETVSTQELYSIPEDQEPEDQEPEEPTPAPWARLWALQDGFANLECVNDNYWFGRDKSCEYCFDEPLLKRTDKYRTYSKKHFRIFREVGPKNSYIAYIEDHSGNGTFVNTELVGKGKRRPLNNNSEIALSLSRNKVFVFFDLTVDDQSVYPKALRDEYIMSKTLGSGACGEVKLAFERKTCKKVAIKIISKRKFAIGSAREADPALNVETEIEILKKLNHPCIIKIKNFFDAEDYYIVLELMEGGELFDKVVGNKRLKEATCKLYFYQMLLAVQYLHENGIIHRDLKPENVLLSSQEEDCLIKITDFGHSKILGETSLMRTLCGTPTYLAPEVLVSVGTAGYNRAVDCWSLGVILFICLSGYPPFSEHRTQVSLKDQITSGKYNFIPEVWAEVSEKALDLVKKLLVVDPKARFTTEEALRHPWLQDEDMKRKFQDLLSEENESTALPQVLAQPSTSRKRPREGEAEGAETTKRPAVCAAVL

[6] = biological target: Fibroblast growth factor receptor 1 (Homo sapiens, UniProt P11362); test: Inhibition of FGFR1 (unknown origin)
Fibroblast growth factor receptor 1, sequence (P11362 whole entry): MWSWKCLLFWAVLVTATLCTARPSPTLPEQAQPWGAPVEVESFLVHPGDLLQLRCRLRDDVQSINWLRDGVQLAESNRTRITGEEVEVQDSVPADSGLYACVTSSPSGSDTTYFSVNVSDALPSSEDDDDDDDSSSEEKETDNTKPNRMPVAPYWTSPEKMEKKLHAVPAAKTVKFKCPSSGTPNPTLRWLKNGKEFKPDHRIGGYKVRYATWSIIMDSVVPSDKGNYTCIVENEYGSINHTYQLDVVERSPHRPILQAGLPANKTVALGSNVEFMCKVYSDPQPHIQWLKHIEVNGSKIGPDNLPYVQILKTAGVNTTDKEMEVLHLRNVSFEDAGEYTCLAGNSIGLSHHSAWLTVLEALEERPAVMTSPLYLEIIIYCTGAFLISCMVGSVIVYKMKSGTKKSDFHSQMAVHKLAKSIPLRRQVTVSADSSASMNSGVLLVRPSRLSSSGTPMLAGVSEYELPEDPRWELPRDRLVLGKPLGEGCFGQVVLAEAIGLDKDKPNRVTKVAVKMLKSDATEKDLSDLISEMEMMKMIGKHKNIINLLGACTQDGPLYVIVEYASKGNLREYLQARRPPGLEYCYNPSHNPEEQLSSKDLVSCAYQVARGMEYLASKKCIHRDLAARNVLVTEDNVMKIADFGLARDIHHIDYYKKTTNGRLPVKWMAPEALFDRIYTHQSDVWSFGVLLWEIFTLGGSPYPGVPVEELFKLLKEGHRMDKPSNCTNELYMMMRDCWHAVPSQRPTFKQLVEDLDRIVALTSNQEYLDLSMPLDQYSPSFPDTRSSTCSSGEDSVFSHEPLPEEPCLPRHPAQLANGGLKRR

MIA PaCa-2 [7] = test: Antiproliferative activity against human MIAPaCa2 cells; format: functional, cell-based
[8] = biological target: Serine/threonine-protein kinase SIK1 (Homo sapiens, UniProt P57059); test: Inhibition of SIK (unknown origin)
Aurora kinase B [9] = biological target: T1, Aurora kinase B; test: Inhibition of aurora-B in human MIAPaCa2 cells assessed as reduction of phosphorylation of histone H3; format: cell-based, MIA PaCa-2
[10] = biological target: Vascular endothelial growth factor receptor 3 (Homo sapiens, UniProt P35916); test: Inhibition of Flt4 (unknown origin)
Vascular endothelial growth factor receptor 3, sequence (P35916 whole entry): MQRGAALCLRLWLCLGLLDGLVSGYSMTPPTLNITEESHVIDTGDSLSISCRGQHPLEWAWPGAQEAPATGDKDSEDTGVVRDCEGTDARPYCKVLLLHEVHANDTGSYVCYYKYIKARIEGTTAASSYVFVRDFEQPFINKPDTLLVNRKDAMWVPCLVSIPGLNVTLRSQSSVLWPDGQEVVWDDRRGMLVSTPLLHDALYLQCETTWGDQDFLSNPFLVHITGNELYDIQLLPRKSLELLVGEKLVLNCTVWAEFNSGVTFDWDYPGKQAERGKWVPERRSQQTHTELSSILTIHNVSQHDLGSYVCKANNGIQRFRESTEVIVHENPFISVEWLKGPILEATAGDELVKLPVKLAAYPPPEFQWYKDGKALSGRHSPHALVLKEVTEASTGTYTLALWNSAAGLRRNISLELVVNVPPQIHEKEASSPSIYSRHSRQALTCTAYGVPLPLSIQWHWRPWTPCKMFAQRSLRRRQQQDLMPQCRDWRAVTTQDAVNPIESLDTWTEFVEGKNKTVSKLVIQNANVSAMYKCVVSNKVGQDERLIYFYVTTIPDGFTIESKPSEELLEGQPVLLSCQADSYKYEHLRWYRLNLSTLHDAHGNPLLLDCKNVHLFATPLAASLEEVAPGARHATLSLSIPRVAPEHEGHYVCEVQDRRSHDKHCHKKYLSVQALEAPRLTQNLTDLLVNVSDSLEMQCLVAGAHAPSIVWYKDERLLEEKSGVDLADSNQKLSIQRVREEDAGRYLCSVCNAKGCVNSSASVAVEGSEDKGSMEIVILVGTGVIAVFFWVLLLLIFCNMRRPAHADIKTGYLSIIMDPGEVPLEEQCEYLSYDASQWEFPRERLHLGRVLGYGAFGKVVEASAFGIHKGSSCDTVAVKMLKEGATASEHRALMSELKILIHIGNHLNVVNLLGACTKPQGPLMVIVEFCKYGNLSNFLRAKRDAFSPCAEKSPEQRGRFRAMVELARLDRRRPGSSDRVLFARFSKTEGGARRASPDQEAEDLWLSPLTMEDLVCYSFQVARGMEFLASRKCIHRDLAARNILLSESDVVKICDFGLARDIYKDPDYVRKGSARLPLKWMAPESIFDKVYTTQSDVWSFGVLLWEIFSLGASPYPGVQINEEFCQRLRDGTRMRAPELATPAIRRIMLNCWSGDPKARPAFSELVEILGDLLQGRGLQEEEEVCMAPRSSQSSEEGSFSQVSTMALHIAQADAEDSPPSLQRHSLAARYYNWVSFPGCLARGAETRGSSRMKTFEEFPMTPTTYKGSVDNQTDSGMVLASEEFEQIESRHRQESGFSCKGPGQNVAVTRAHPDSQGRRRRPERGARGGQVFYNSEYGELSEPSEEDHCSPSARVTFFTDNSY

Activated CDC42 kinase 1 = Activated CDC42 kinase 1 (Homo sapiens, UniProt Q07912); test: Inhibition of ACK1 (unknown origin)
[11] = biological target: T3, Mitogen-activated protein kinase 13 (Homo sapiens, UniProt O15264); test: Inhibition of SAPK4 (unknown origin)
T3 sequence (O15264 whole entry): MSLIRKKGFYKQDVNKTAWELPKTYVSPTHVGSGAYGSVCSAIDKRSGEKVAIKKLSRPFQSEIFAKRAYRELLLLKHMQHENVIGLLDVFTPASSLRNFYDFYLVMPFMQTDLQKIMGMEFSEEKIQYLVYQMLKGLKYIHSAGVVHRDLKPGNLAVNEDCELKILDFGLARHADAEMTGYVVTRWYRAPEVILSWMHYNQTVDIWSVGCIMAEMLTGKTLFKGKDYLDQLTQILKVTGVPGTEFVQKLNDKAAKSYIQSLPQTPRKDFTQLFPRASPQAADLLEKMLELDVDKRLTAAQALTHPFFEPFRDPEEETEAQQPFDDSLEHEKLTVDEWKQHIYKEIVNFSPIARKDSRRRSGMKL

[12] = biological target: Serine/threonine-protein kinase WNK3 (Homo sapiens, UniProt Q9BYP7); test: Inhibition of WNK3 (unknown origin)
[13] = biological target: High affinity nerve growth factor receptor (Homo sapiens, UniProt P04629); test: Inhibition of TrkA (unknown origin)
[14] = Cmax in mouse at 5 mg/kg, iv; format: ADME, organism-based; parameters: dose 5 mg/kg, route intravenous; details: in vivo
[15] = Clearance in mouse at 5 mg/kg, iv; format: ADME, organism-based; parameters: dose 5 mg/kg, route intravenous; details: in vivo
[16] = AUC in mouse at 5 mg/kg, po; format: ADME, organism-based; parameters: dose 5 mg/kg, route oral; details: plasma
[17] = Oral bioavailability in mouse at 5 mg/kg; format: ADME, organism-based; details: in vivo
[18] = biological target: Tyrosine-protein kinase Blk (Homo sapiens, UniProt P51451); test: Inhibition of Blk (unknown origin)
[19] = Cmax in mouse at 5 mg/kg, po; format: ADME, organism-based; parameters: dose 5 mg/kg, route oral; details: in vivo
[20] = Half life in mouse at 5 mg/kg, iv; format: ADME, organism-based; parameters: dose 5 mg/kg, route intravenous; details: in vivo
[21] = biological target: Macrophage colony-stimulating factor 1 receptor (Homo sapiens, UniProt P07333); test: Inhibition of Fms (unknown origin)
[22] = biological target: Tyrosine-protein kinase ABL2 (Homo sapiens, UniProt P42684); test: Inhibition of Arg (unknown origin)
[23] = AUC in mouse at 5 mg/kg, iv; format: ADME, organism-based; parameters: dose 5 mg/kg, route intravenous; details: plasma
[24] = Half life in mouse at 5 mg/kg, po; format: ADME, organism-based; parameters: dose 5 mg/kg, route oral; details: in vivo
Mus musculus = test: Inhibition of aurora-B in mouse bone marrow assessed as reduction of phosphorylation of histone H3 at 150 and 300 mg/kg, po after 2 hrs; format: functional
MIA PaCa-2 [25] = test: Induction of endoreduplication human MIAPaCa2 cells assessed as accumulation of cells with >4N DNA content after 24 hrs; format: functional, cell-based
[26] = Volume of distribution at steady state in mouse at 5 mg/kg, iv; format: ADME, organism-based; parameters: dose 5 mg/kg, route intravenous; details: in vivo, read-out: Vdss

T1 sequence (Q96GD4 whole entry): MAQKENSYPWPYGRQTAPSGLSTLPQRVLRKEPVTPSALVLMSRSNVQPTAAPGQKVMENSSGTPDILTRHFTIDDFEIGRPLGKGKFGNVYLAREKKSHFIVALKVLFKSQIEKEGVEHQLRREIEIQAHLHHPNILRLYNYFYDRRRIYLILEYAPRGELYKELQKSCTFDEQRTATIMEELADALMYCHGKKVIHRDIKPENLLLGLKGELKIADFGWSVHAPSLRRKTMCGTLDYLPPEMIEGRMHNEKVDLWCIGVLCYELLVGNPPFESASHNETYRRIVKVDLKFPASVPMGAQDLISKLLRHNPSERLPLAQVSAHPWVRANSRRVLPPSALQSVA

IC50 (Aurora kinase B [1]) [nM] | IC50 (Aurora kinase A) [nM] | IC50 (MIA PaCa-2 [7]) [nM] | SMILES | further results
0.5 | 2 | 209 | O=C(Nc1ccc(Nc2ccnc3[nH]c(=O)c4ccccc4c23)cc1)c1cccc(F)c1F | 
0.4 | 0.3 | 170 | O=C(Nc1ccc(Nc2ccnc3[nH]c(=O)c4ccccc4c23)cc1)c1ccc(F)cc1C(F)(F)F | Cmax [14]: 3930 ng/mL; IC50 [2]: 706 nM; clearance [15]: 19.7 mL/min/kg; IC50 (LIM domain kinase 1): 18 nM; AUC [16]: 1440 ng·h/mL; bioavailability [17]: 41%; IC50 [18]: 959 nM; IC50 [5]: 161 nM; Cmax [19]: 321 ng/mL; half-life [20]: 1.36 h; IC50 (Aurora kinase B [9]): 52 nM; IC50 [21]: 575 nM; IC50 [22]: 863 nM; AUC [23]: 4190 ng·h/mL; IC50 [10]: 867 nM; half-life [24]: 2.74 h; inhibition in vivo at 300 mg/kg (Mus musculus): 40%; Activity (MIA PaCa-2 [25]): Active; Vd [26]: 1.48 L/kg
1 | 4 | 405 | O=C(Nc1ccc(Nc2ccnc3[nH]c(=O)c4ccccc4c23)cc1)c1ccccc1C(F)(F)F | 
1 | 4 | 719 | O=C(Nc1ccc(Nc2ccnc3[nH]c(=O)c4ccccc4c23)cc1)c1ccc(F)cc1 | 
2 | 9 | 6250 | O=C(Nc1ccc(Nc2ccnc3[nH]c(=O)c4ccccc4c23)cc1)c1ccccc1F | 
2 | 3 | 2390 | Cc1ccc(C(=O)Nc2ccc(Nc3ccnc4[nH]c(=O)c5ccccc5c34)cc2)cc1 | 
1 | 3 | 1190 | COc1cccc(F)c1C(=O)Nc1ccc(Nc2ccnc3[nH]c(=O)c4ccccc4c23)cc1 | 
1 | 7 | 919 | O=C(Nc1ccc(Nc2ccnc3[nH]c(=O)c4ccccc4c23)cc1)c1cccc(F)c1 | 
 | 9 | 4990 | O=C(Nc1ccc(Nc2ccnc3[nH]c(=O)c4ccccc4c23)cc1)c1ccc(C(F)(F)F)cc1F | 
6 | 27 | 2710 | O=C(Nc1ccc(Nc2ccnc3[nH]c(=O)c4ccccc4c23)cc1)c1ccc(C(F)(F)F)cc1 | 
1 | 2 | 374 | O=C(Nc1ccc(Nc2ccnc3[nH]c(=O)c4ccccc4c23)cc1)c1ccc(F)cc1F | 
 | 9 | 211 | O=C(Nc1ccc(Nc2ccnc3[nH]c(=O)c4ccccc4c23)cc1)c1cc(F)cc(C(F)(F)F)c1 | 
0.8 | 7 | 409 | O=C(Nc1ccc(Nc2ccnc3[nH]c(=O)c4ccccc4c23)cc1)c1ccc(F)c(F)c1 | 
1 | 7 | 253 | O=C(Nc1ccc(Nc2ccnc3[nH]c(=O)c4ccccc4c23)cc1)c1cccc(C(F)(F)F)c1F | 
0.7 | 7 | 823 | O=C(Nc1ccc(Nc2ccnc3[nH]c(=O)c4ccccc4c23)cc1)c1cc(F)cc(F)c1 | 
0.6 | 5 | 293 | O=C(Nc1ccc(Nc2ccnc3[nH]c(=O)c4ccccc4c23)cc1)c1c(F)cccc1F | 

More lines, now with the values behind:

SMILES | IC50 (Aurora kinase B [1]) [nM] | IC50 (Aurora kinase A) [nM] | IC50 (MIA PaCa-2 [7]) [nM] | further results
Nc1ccc(Nc2ccnc3[nH]c(=O)c4ccccc4c23)cc1 | 174 | 1150 |  | 
O=C(Nc1ccc(Nc2ccnc3[nH]c(=O)c4ccccc4c23)nc1)c1ccccc1 | 79 | 615 |  | 
O=C(Nc1ccc(Nc2ccnc3[nH]c(=O)c4ccccc4c23)cc1)c1ccccc1 | 1 | 4 | 329 | IC50 [2]: 15 nM; IC50 [3]: 958 nM; IC50 (LIM domain kinase 1): 36 nM; solubility [4]: < 1 µM; IC50 [5]: 41 nM; IC50 [6]: 175 nM; IC50 [8]: 211 nM; IC50 (Aurora kinase B [9]): 208 nM; IC50 [10]: 417 nM; IC50 (Activated CDC42 kinase 1): 149 nM; IC50 [11]: 411 nM; IC50 [12]: 401 nM; IC50 [13]: 819 nM
O=C(Nc1ccc(Nc2ccnc3[nH]c(=O)c4ccccc4c23)cn1)c1ccccc1 | 13 | 70 |  | 
COc1ccccc1C(=O)Nc1ccc(Nc2ccnc3[nH]c(=O)c4ccccc4c23)cc1 | 2 | 7 | 2220 | 
O=C(Nc1ncc(Nc2ccnc3[nH]c(=O)c4ccccc4c23)cn1)c1ccccc1 | 21 | 88 |  | 
CNc1ccc(Nc2ccnc3[nH]c(=O)c4ccccc4c23)cc1 |  | 471 |  | 
O=c1[nH]c2nccc(Nc3ccccc3)c2c2ccccc12 |  | 1030 |  | 
Nc1ccnc2[nH]c(=O)c3ccccc3c12 |  | 3010 |  | 
O=c1[nH]c2ncccc2c2ccccc12 |  | 5540 |  | 
O=c1[nH]c2nccc(Cl)c2c2ccccc12 | 1440 | 3010 |  | 
